In BindingDB's records for doi:10.1016/j.bmcl.2006.10.060 (Merck Research Laboratories, 2007):

Assay: Antagonist activity against human CCR2 receptor assessed as inhibition of MCP1-induced migration of human peripheral blood monocytes

| IC50 [nM] | Structure (SMILES) |
| --- | --- |
| 54 | CCN(CC)CCCC(C)NC(=O)CCNc1cc(-c2cc(Cl)cc(Cl)c2)nn1-c1ccc2ccccc2c1 (stereo unspecified) [3-(3-(3,5-dichlorophenyl)-1-(naphthalen-2-yl)-1H-pyrazol-5-ylamino)-N-(5-(diethylamino)pentan-2-yl)propanamide] |
| 178 | CCN(CC)CCCC(CC(C)C)NC(=O)CCOc1cc(-c2cc(Cl)cc(Cl)c2)nn1-c1ccc2ccccc2c1 (stereo unspecified) [3-(3-(3,5-dichlorophenyl)-1-(naphthalen-2-yl)-1H-pyrazol-5-yloxy)-N-(1-(diethylamino)-6-methylheptan-4-yl)propanamide] |
| 225 | CCC(C)CC(CCCN(CC)CC)NC(=O)CCOc1cc(-c2cc(Cl)cc(Cl)c2)nn1-c1ccc2ccccc2c1 (stereo unspecified) [3-(3-(3,5-dichlorophenyl)-1-(naphthalen-2-yl)-1H-pyrazol-5-yloxy)-N-(1-(diethylamino)-6-methyloctan-4-yl)propanamide] |
| 154 | CCCC(CCCN(CC)CC)NC(=O)CCOc1cc(-c2cc(Cl)cc(Cl)c2)nn1-c1ccc2ccccc2c1 (stereo unspecified) [3-(3-(3,5-dichlorophenyl)-1-(naphthalen-2-yl)-1H-pyrazol-5-yloxy)-N-(1-(diethylamino)heptan-4-yl)propanamide] |
| 280 | CCN(CC)CCCC(C)NC(=O)CCOc1cc(-c2cc(Cl)cc(Cl)c2)nn1-c1ccc2ccccc2c1 (stereo unspecified) [3-(3-(3,5-dichlorophenyl)-1-(naphthalen-2-yl)-1H-pyrazol-5-yloxy)-N-(5-(diethylamino)pentan-2-yl)propanamide] |
| 32 | CCN(CC)CCCC(NC(=O)CCOc1cc(-c2cc(Cl)cc(Cl)c2)nn1-c1ccc2ccccc2c1)C(C)C (stereo unspecified) [3-(3-(3,5-dichlorophenyl)-1-(naphthalen-2-yl)-1H-pyrazol-5-yloxy)-N-(6-(diethylamino)-2-methylhexan-3-yl)propanamide] |
| 83 | CCC(CCCN(CC)CC)NC(=O)CCOc1cc(-c2cc(Cl)cc(Cl)c2)nn1-c1ccc2ccccc2c1 (stereo unspecified) [3-(3-(3,5-dichlorophenyl)-1-(naphthalen-2-yl)-1H-pyrazol-5-yloxy)-N-(6-(diethylamino)hexan-3-yl)propanamide] |
| 1400 | O=C(CCCc1cc(-c2cc(Cl)cc(Cl)c2)nn1-c1ccc2ccccc2c1)NCCCc1ccncc1 [4-(3-(3,5-dichlorophenyl)-1-(naphthalen-2-yl)-1H-pyrazol-5-yl)-N-(3-(pyridin-4-yl)propyl)butanamide] |
| 68 | COC(=O)[C@H](CCCN=C(N)N)NC(=O)CCNc1cc(-c2cc(Cl)cc(Cl)c2)nn1-c1ccc2ccccc2c1 [(S)-2-{3-[5-(3,5-dichloro-phenyl)-2-naphthalen-2-yl-2H-pyrazol-3-ylamino]-propionylamino}-5-guanidino-pentanoic acid methyl ester] |
| 118 | COC(=O)[C@H](CCCN=C(N)N)NC(=O)CCOc1cc(-c2cc(Cl)cc(Cl)c2)nn1-c1ccc2ccccc2c1 [(S)-2-{3-[5-(3,5-dichloro-phenyl)-2-naphthalen-2-yl-2H-pyrazol-3-yloxy]-propionylamino}-5-guanidino-pentanoic acid methyl ester] |
| 185 | COC(=O)[C@H](CCCN=C(N)N)NC(=O)CCCc1cc(-c2cc(Cl)cc(Cl)c2)nn1-c1ccc2ccccc2c1 [(S)-2-{4-[5-(3,5-dichloro-phenyl)-2-naphthalen-2-yl-2H-pyrazol-3-yl]-butyrylamino}-5-guanidino-pentanoic acid methyl ester] |
